One series addresses Albumin (Homo sapiens, UniProt P02768). As to the kind of experiment: Compound was measured for its retention time in human serum albumin;where k`=tt-t0/t0; tt=retention time of compound and t0=retention time of DMSO.
Series [1] deals with T1, Coagulation factor VII (Homo sapiens, UniProt P08709).
T1 sequence (P08709 whole entry): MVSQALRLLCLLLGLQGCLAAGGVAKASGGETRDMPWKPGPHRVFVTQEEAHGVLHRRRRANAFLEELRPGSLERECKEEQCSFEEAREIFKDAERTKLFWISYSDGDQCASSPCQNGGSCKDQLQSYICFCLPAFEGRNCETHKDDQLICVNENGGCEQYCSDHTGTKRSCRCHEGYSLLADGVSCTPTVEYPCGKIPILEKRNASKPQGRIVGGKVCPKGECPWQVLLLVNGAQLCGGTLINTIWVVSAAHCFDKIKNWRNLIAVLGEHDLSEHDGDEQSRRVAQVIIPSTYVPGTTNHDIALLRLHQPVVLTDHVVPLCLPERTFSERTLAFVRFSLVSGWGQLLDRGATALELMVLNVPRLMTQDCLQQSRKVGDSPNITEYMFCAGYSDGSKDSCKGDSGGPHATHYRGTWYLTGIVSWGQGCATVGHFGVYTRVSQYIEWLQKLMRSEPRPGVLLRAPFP
As to the kind of experiment: Inhibitory activity for the compound against coagulation factor VIIa in presence of 1% ovalbumin.

Series [2] has as its target T1, Coagulation factor VII. The experiment in a line: Inhibitory activity for the compound against coagulation factor VIIa in presence of 0.1% human serum albumin.
The target in series [3] is T1, Coagulation factor VII. The experiment in a line: Inhibitory activity for the compound against coagulation factor VIIa in presence of 0.1% rabbit serum albumin.
Series [4] in a line: Clearance was measured at the concentration of 2.0 mg/kg in rabbit blood sample. Format: ADME, organism-based, Oryctolagus cuniculus. Also on record: dose 2 mg/kg.
Series [5] is described as follows: Half-life was measured at the concentration of 2.0 mg/kg in rabbit blood sample. Format: ADME, organism-based, Oryctolagus cuniculus. Also on record: dose 2 mg/kg.
The nature of series [6]: Clearance was measured at the concentration of 1.11 mg/kg in rabbit blood sample. The format is ADME, organism-based, Oryctolagus cuniculus. Also on record: dose 1.11 mg/kg.
The nature of series [7]: Half-life was measured at the concentration of 1.11 mg/kg in rabbit blood sample. Format: ADME, organism-based, Oryctolagus cuniculus. Details: dose 1.11 mg/kg.

5 compounds from ChEMBL document CHEMBL1136423, “Phosphate ester serum albumin affinity tags greatly improve peptide half-life in vivo” (Bioorg Med Chem Lett, 2003) can be followed below.

Molecules are shown by their SMILES. Where a SMILES comes first, the peptide text is derived from it. Bridges are numbered along the chain shown (N, C = ends). The star is where a group is joined. X3 = O=C(CCCCCOP(=O)(O)OC1CCC(c2ccccc2)(c2ccccc2)CC1)*; X4 = O=C(CCC(=O)*)NS(=O)(=O)c1ccc2ccccc2c1; X2 = O=C(CCCCCOP(=O)(O)Oc1ccc2ccccc2c1)*; X1 = O=C(CCCCCOP(=O)(O)OCCCCCc1ccccc1)*

Albumin, sequence (P02768 whole entry): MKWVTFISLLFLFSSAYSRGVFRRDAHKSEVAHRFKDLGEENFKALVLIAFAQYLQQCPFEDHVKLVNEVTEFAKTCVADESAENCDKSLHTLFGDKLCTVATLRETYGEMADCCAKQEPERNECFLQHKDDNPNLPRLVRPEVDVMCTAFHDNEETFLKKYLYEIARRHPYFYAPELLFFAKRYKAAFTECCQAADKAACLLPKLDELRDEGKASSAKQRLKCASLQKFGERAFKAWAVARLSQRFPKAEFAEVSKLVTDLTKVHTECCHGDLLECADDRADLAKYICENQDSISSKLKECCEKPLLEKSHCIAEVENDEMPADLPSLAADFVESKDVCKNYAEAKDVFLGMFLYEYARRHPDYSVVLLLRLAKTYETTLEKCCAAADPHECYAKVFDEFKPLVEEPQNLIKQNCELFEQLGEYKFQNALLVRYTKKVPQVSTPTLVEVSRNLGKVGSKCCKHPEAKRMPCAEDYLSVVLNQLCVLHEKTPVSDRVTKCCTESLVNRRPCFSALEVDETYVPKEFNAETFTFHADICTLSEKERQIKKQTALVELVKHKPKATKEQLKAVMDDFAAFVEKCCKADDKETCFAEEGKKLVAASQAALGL

What is called IC50 is the concentration that gives 50% inhibition. As usually defined, the clearance is the rate of elimination divided by the concentration. A high value points to a high capacity for elimination. One may read the half-life as the time needed for the level to fall by half in the phase considered. A low value points to fast loss. `CC[C@H](C)[C@@H]1NC(=O)[C@H](CCCN=C(N)N)NC(=O)[C@@H]2CCCN2C(=O)[C@H](CC(N)=O)NC(=O)[C@H](CC(=O)O)NC(=O)[C@@H](NC(=O)[C@H](CC(C)C)NC(=O)[C@H](C)NC(=O)CCCCCOP(=O)(O)OCCCCCc2ccccc2)CSSC[C@@H](C(=O)N[C@@H](CCC(N)=O)C(=O)N[C@@H](Cc2ccccc2)C(=O)N[C@H](C(=O)N[C@@H](CCC(=O)O)C(=O)NCC(N)=O)C(C)C)NC(=O)[C@H](Cc2ccc(O)cc2)NC(=O)[C@H](Cc2c[nH]c3ccccc23)NC(=O)[C@H](CCCN=C(N)N)NC(=O)[C@H](CC(=O)O)NC1=O` (X1-ALCDNPRIDRWYCQFVEG-NH2; disulfide 3-13): the “k'/k'+1” value at Albumin turned out to be 0.92. In addition, the values for the concentration for half-maximal inhibition (IC50) on Coagulation factor VII [1], on Coagulation factor VII [2] and on Coagulation factor VII [3] were 2 nM, 2.4 nM and 22 nM, respectively. The clearance in series [4] came out at 0.505 mL/min/kg. This compound displayed a half-life in series [5] of 79.1 min.

Take `CC[C@H](C)[C@@H]1NC(=O)[C@H](CCCN=C(N)N)NC(=O)[C@@H]2CCCN2C(=O)[C@H](CC(N)=O)NC(=O)[C@H](CC(=O)O)NC(=O)[C@@H](NC(=O)[C@H](CC(C)C)NC(=O)[C@H](C)NC(=O)CCCCCOP(=O)(O)OC2CCC(c3ccccc3)(c3ccccc3)CC2)CSSC[C@@H](C(=O)N[C@@H](CCC(N)=O)C(=O)N[C@@H](Cc2ccccc2)C(=O)N[C@H](C(=O)N[C@@H](CCC(=O)O)C(=O)NCC(N)=O)C(C)C)NC(=O)[C@H](Cc2ccc(O)cc2)NC(=O)[C@H](Cc2c[nH]c3ccccc23)NC(=O)[C@H](CCCN=C(N)N)NC(=O)[C@H](CC(=O)O)NC1=O` (X3-ALCDNPRIDRWYCQFVEG-NH2; disulfide 3-13): on Albumin, the “k'/k'+1” value was 0.78. For the same compound, the figures for the half-maximal inhibitory concentration (IC50) on Coagulation factor VII [1], on Coagulation factor VII [2] and at Coagulation factor VII [3] were 4 nM, 3.4 nM and 90 nM, respectively. In series [4], this compound had a clearance of 0.185 mL/min/kg. Also, the half-life in series [5] is 222 min.

As to `CC[C@H](C)[C@@H]1NC(=O)[C@H](CCCN=C(N)N)NC(=O)[C@@H]2CCCN2C(=O)[C@H](CC(N)=O)NC(=O)[C@H](CC(=O)O)NC(=O)[C@@H](NC(=O)[C@H](CC(C)C)NC(=O)[C@H](C)NC(=O)CCC(=O)NS(=O)(=O)c2ccc3ccccc3c2)CSSC[C@@H](C(=O)N[C@@H](CCC(N)=O)C(=O)N[C@@H](Cc2ccccc2)C(=O)N[C@H](C(=O)N[C@@H](CCC(=O)O)C(=O)NCC(N)=O)C(C)C)NC(=O)[C@H](Cc2ccc(O)cc2)NC(=O)[C@H](Cc2c[nH]c3ccccc23)NC(=O)[C@H](CCCN=C(N)N)NC(=O)[C@H](CC(=O)O)NC1=O` (X4-ALCDNPRIDRWYCQFVEG-NH2; disulfide 3-13), at Albumin, the “k'/k'+1” value was 0.97. Moreover, the IC50 was found to be 3.6 nM at Coagulation factor VII [1], 2.5 nM at Coagulation factor VII [2] and 24 nM at Coagulation factor VII [3]. The same compound returned a clearance in series [4] of 1.64 mL/min/kg. Further, the half-life in series [5] was 30 min.

Consider `CC[C@H](C)[C@@H]1NC(=O)[C@H](CCCN=C(N)N)NC(=O)[C@@H]2CCCN2C(=O)[C@H](CC(N)=O)NC(=O)[C@H](CC(=O)O)NC(=O)[C@@H](NC(=O)[C@H](CC(C)C)NC(=O)[C@H](C)NC(C)=O)CSSC[C@@H](C(=O)N[C@@H](CCC(N)=O)C(=O)N[C@@H](Cc2ccccc2)C(=O)N[C@H](C(=O)N[C@@H](CCC(=O)O)C(=O)NCC(N)=O)C(C)C)NC(=O)[C@H](Cc2ccc(O)cc2)NC(=O)[C@H](Cc2c[nH]c3ccccc23)NC(=O)[C@H](CCCN=C(N)N)NC(=O)[C@H](CC(=O)O)NC1=O` (Ac-ALCDNPRIDRWYCQFVEG-NH2; disulfide 3-13), for which, in series [6], the clearance amounted to 26.8 mL/min/kg. The half-life in series [7] turned out to be 4.18 min. Also, on Albumin, the “k'/k'+1” value is 0.21. The IC50 at Coagulation factor VII [1] stood at 9.2 nM; on Coagulation factor VII [2] it was 11 nM; at Coagulation factor VII [3] it was 9.7 nM.

For `CC[C@H](C)[C@@H]1NC(=O)[C@H](CCCN=C(N)N)NC(=O)[C@@H]2CCCN2C(=O)[C@H](CC(N)=O)NC(=O)[C@H](CC(=O)O)NC(=O)[C@@H](NC(=O)[C@H](CC(C)C)NC(=O)[C@H](C)NC(=O)CCCCCOP(=O)(O)Oc2ccc3ccccc3c2)CSSC[C@@H](C(=O)N[C@@H](CCC(N)=O)C(=O)N[C@@H](Cc2ccccc2)C(=O)N[C@H](C(=O)N[C@@H](CCC(=O)O)C(=O)NCC(N)=O)C(C)C)NC(=O)[C@H](Cc2ccc(O)cc2)NC(=O)[C@H](Cc2c[nH]c3ccccc23)NC(=O)[C@H](CCCN=C(N)N)NC(=O)[C@H](CC(=O)O)NC1=O` (X2-ALCDNPRIDRWYCQFVEG-NH2; disulfide 3-13), the “k'/k'+1” value on Albumin is reported as 0.92. For the same compound, the IC50 came to 1.9 nM on Coagulation factor VII [1], 2 nM on Coagulation factor VII [2] and 9.2 nM on Coagulation factor VII [3]. The compound also registered a clearance in series [4] of 0.707 mL/min/kg. Also, in series [5], the half-life came to 34.8 min.
